Here are results for twelve compounds from patent publication US20230382940A1, “ANTIVIRAL COMPOUNDS AND METHODS OF MAKING AND USING THE SAME” (Gilead Sciences, Inc., priority 2022, published 2023).

Series [1] is described as follows: GI S9 stability, cyno, Example Y. Format: in vitro ADME. The following applies: cynomolgus monkey, pooled intestinal S9 fractions; cyno intestinal S9, 1.0 mg/mL protein, 2 μM compound, pH 7.4; read-out: GIS9 Cyno T½ (per Ex. Y). Here is the method:
(§1) Example Y: GI S9 Stability Data
(§2) Stock solutions of test compounds in dimethyl sulfoxide (DMSO) having a final concentration of 10 mM were prepared and used in all experiments. Sekisui XenoTech (Kansas City, KS) provided pooled intestinal S9 fractions. All other chemicals were purchased from Sigma-Aldrich (St. Louis, MO) or VWR (West Chester, PA). Internal Standard/Quench (IS/Q) used to stop reactions was 100 nM labetalol in (by volume) methanol (10%) and acetonitrile (90%).
(§3) Stability in Intestinal S9 Fractions: Duplicate aliquots of test compound or positive control substrate were added to S9 stock diluted with phosphate buffered saline (137 mM NaCl, 2.7 mM KCl, 10 mM phosphate buffer), pH 7.4, to obtain a protein concentration of 1.0 mg/mL. The metabolic reactions were initiated by the addition of the substrates to the S9 reaction mixture to a final concentration of 2 μM. At 0, 10, 20, 30, 60 and 120 min, 25 μL aliquots of the reaction mixture were transferred to plates containing 225 μl of IS/Q solution. After quenching, the plates were centrifuged at 3000×g for 30 minutes. 150 μL aliquots of each supernatant were dried down then reconstituted with 300 μL water. Aliquots (10 μL) of the prepared samples were analyzed on a Thermo Q-Exactive mass spectrometer as described below.
(§4) Liquid Chromatography—Mass Spectrometry: Quantification of test compounds and control substrate was performed by analyte/internal standard peak area ratio (PAR) values measured on a Thermo Q-Exactive mass spectrometer coupled to a Dionex UltiMate 3000 HPLC with a Leap Technologies HTC PAL autosampler. The column used for analysis was a Waters Acquity BEH C18 (1.7 μm particle size, 2.1×50 mm). Mobile phase A consisted of 0.1% (v/v) formic acid in water. Mobile phase B consisted of 0.1% (v/v) formic acid in acetonitrile. Elution of analytes was achieved by a series of linear gradients varying the proportions of A and B. The mass spectrometer was calibrated on a weekly basis and mass tolerance of 5 ppm was used.
(§5) Metabolic stabilities in S9 fractions were determined by measuring the rates of disappearance of test compound and positive control substrate.
(§6) Data (% of substrate remaining) were plotted on a semi-log scale and fitted using an exponential decline model:
(§7) Ct=C0×e^−ln2/T1/2×t • Where Ct—% of substrate remaining at time=t; C0—% of substrate remaining at time=0; t—time; T1/2—half-life. • The Half-life (T1/2) is determined by the following equation: […]
(§8) Assuming a first-order reaction, the slope (k) is extrapolated from the aforementioned plotted data.

Series [2] in a line: GI S9 stability, dog, Example Y. In kind it is in vitro ADME. The following applies: dog intestinal S9, 1.0 mg/mL protein, 2 μM compound, pH 7.4; for half-life at 2 μM: pooled intestinal S9 fractions, read-out: GIS9 DOG T½ (per Ex. Y). Here is the method:
as §1, §2, §3, §4, §5, §6, §7, §8

Series [3] relates to Human Rhinovirus 16 (HRV16). As to the kind of experiment: H1-HeLa HRV-CTG 384-well assay, HRV16, Example X. In kind it is cell-based. The following applies: Rhinovirus A, 96 h; H1-HeLa cells, HRV16 MOI 0.25, 4 days, Celltiter-Glo; read-out: EC50 H1-HeLa_HRV 16_HRV-CTG 384-well Assay (per Ex. X). The source says: (§9) Example X: H1-HeLa HRV-CTG 384-Well Assay
(§10) H1-Hela cell line (ATCC, Manassas, VA, Cat #CRL-1958) was maintained in Dulbecco's […] (DMEM) (Corning, New York, NY, Cat #15-018CM) supplemented with 10% fetal bovine serum (FBS) (Hyclone, Logan, UT, Cat #SH30071-03), and 1× Penicillin-Streptomycin-L-Glutamine (Corning, New York, NY, Cat #30-009-CI). Cells were passaged 2 times per week to maintain sub-confluent densities and were used for experiments at passage 5-30. The Human Rhinovirus 1B (HRV1B) (ATCC, Manassas, VA, Cat #VR-1645), Human Rhinovirus 14 (HRV14) (ATCC, Manassas, VA, Cat #VR-284), and Human Rhinovirus 16 (HRV16) (ATCC, Manassas, VA, Cat #BR-283) was obtained through ATCC. Viral infection was monitored by determining viability of H1-HeLa cells as described below.
(§11) Test molecules are prepared in 100% DMSO in 384-well polypropylene plates (Greiner, Monroe, NC, Cat #784201) with 8 compounds per plate in grouped replicates of 4 at 10 serially diluted concentrations (1:3). The serially diluted compounds were transferred to low dead volume Echo plates (Labcyte, Sunnyvale, CA, Cat #LP-0200).
(§12) The test compounds were spotted to 384-well assay plates (Greiner, Monroe, NC, Cat #781091) at 200 nL per well using an Echo acoustic dispenser (Labcyte, Sunnyvale, CA). H1-HeLa cells were harvested and suspended in DMEM (supplemented with 2% FBS and 1× Penicillin-Streptomycin-L-Glutamine) and seeded to the pre-spotted assay plates at 5,000 cells per well in 30 μL. HRV1B, HRV14, and HRV16 was diluted in DMEM (supplemented with 2% FBS and 1× Penicillin-Streptomycin-L-Glutamine) at 97.1 million Infectious Units (IU) per mL, 151 million IU per mL and 221 million IU per mL respectively. 10 μL of virus per well was added to the assay plates containing cells and compounds, for an MOI of 0.5, 1.0, and 0.25 respectively. The assay plates were incubated for 4 days at 37° C. and 5% CO2. At the end of incubation, Celltiter-Glo (Promega, Madison, WI, Cat #G7573) was prepared. The assay plates and Celltiter-Glo reagent were equilibrated to room temperature for at least 15 minutes. 40 μL per well of Celltiter-Glo reagent was added and the plates were incubated at room temperature for 15 minutes before reading the luminescence signal on an EnVision multimode plate reader (Perkin Elmer, Waltham, MA). Rupintrivir was used as positive control and DMSO was used as negative control. Values were normalized to the positive and negative controls (as 0% and 100% replication, respectively) and data was fitted using non-linear regression analysis by Gilead's dose response tool. The EC50 value for each compound was defined as the concentration reducing viral replication by 50%.
For orientation: ATP-based viability assays read luminescence as a measure of living cells.

Series [4] has as its system Human Rhinovirus 14 (HRV14). The series is described as follows: H1-HeLa HRV-CTG 384-well assay, HRV14, Example X. The following applies: Rhinovirus B, 96 h; H1-HeLa cells, HRV14 MOI 1.0, 4 days, Celltiter-Glo; read-out: EC50 H1-HeLa_HRV 14_HRV-CTG 384-well Assay (per Ex. X). In kind it is cell-based.
Text: as §9, §10, §11, §12

As a reminder, the EC50 is the concentration that produces a half-maximal response.

`N#C[C@]1(COC(=O)OC2CCCC2)O[C@@H](c2ccc3c(N)ncnn23)[C@H](O)[C@@H]1O` [Compound 1, ((2R,3S,4R,5S)-5-(4-aminopyrrolo[2,1-f][1,2,4]triazin-7-yl)-2-cyano-3,4-dihydroxytetrahydrofuran-2-yl)methyl cyclopentyl carbonate]: the figures for the half-life at 2 μM in series [1] and in series [2] were 11 min and 256 min, respectively. For the same compound, the values for the EC50 in series [3] and in series [4] were 31.2 µM and 19.1 µM, respectively.
Turning to `CC(C)(C)COC(=O)OC[C@@]1(C#N)O[C@@H](c2ccc3c(N)ncnn23)[C@H](O)[C@@H]1O` [Compound 2, ((2R,3S,4R,5S)-5-(4-aminopyrrolo[2,1-f][1,2,4]triazin-7-yl)-2-cyano-3,4-dihydroxytetrahydrofuran-2-yl)methyl neopentyl carbonate], the half-life at 2 μM in series [1] came to 4 min; in series [2], 162 min. Further, the EC50 in series [3] stood at 9.74 µM; in series [4], 7.66 µM.
For `CC[C@H](C)OC(=O)OC[C@@]1(C#N)O[C@@H](c2ccc3c(N)ncnn23)[C@H](O)[C@@H]1O` [Compound 4, ((2R,3S,4R,5S)-5-(4-aminopyrrolo[2,1-f][1,2,4]triazin-7-yl)-2-cyano-3,4-dihydroxytetrahydrofuran-2-yl)methyl ((S)-sec-butyl) carbonate] the same measures were 22 min, 462 min, 38.6 µM and 22.2 µM.
Consider `COC(=O)OC[C@@]1(C#N)O[C@@H](c2ccc3c(N)ncnn23)[C@H](O)[C@@H]1O` [Compound 6, ((2R,3S,4R,5S)-5-(4-aminopyrrolo[2,1-f][1,2,4]triazin-7-yl)-2-cyano-3,4-dihydroxytetrahydrofuran-2-yl)methyl methyl carbonate], for which the half-life at 2 μM in series [1] was determined as 38 min. For the same compound, the “GIS9 DOG T½ (per Ex. Y)” value in series [2] was found to be 789 min. In addition, the EC50 was determined as 13.7 µM in series [3] and 15.2 µM in series [4].
Consider `CC(C)COC(=O)OC[C@@]1(C#N)O[C@@H](c2ccc3c(N)ncnn23)[C@H](O)[C@@H]1O` [Compound 8, ((2R,3S,4R,5S)-5-(4-aminopyrrolo[2,1-f][1,2,4]triazin-7-yl)-2-cyano-3,4-dihydroxytetrahydrofuran-2-yl)methyl isobutyl carbonate], for which the values for the half-life at 2 μM in series [1] and in series [2] were 8 min and 311 min, respectively. The EC50 came out at 9.82 µM in series [3] and 7.6 µM in series [4].
For `CCCOC(=O)OC[C@@]1(C#N)O[C@@H](c2ccc3c(N)ncnn23)[C@H](O)[C@@H]1O` [Compound 9, ((2R,3S,4R,5S)-5-(4-aminopyrrolo[2,1-f][1,2,4]triazin-7-yl)-2-cyano-3,4-dihydroxytetrahydrofuran-2-yl)methyl propyl carbonate] the same measures were 19 min, 156 min, 10.9 µM and 14.7 µM.
For `CC[C@@H](C)OC(=O)OC[C@@]1(C#N)O[C@@H](c2ccc3c(N)ncnn23)[C@H](O)[C@@H]1O` [Compound 10, ((2R,3S,4R,5S)-5-(4-aminopyrrolo[2,1-f][1,2,4]triazin-7-yl)-2-cyano-3,4-dihydroxytetrahydrofuran-2-yl)methyl ((R)-sec-butyl) carbonate], the half-life at 2 μM in series [1] was found to be 9 min. Also, the “GIS9 DOG T½ (per Ex. Y)” value in series [2] stood at 789 min. In addition, the EC50 in series [3] was 36.7 µM; in series [4], 35.7 µM.
For `CC(C)OC(=O)OC[C@@]1(C#N)O[C@@H](c2ccc3c(N)ncnn23)[C@H](O)[C@@H]1O` [Compound 11, ((2R,3S,4R,5S)-5-(4-aminopyrrolo[2,1-f][1,2,4]triazin-7-yl)-2-cyano-3,4-dihydroxytetrahydrofuran-2-yl)methyl isopropyl carbonate] the same measures were 35 min, 789 min, 37.4 µM and 31.1 µM.
With `N#C[C@]1(COC(=O)OC2CCOCC2)O[C@@H](c2ccc3c(N)ncnn23)[C@H](O)[C@@H]1O` [Compound 12, ((2R,3S,4R,5S)-5-(4-aminopyrrolo[2,1-f][1,2,4]triazin-7-yl)-2-cyano-3,4-dihydroxytetrahydrofuran-2-yl)methyl (tetrahydro-2H-pyran-4-yl) carbonate], the half-life at 2 μM in series [1] stood at 274 min. Moreover, the results for the concentration giving a half-maximal response (EC50) in series [3] and in series [4] were 30.3 µM and 27.2 µM, respectively.
With `COC[C@@H](C)OC(=O)OC[C@@]1(C#N)O[C@@H](c2ccc3c(N)ncnn23)[C@H](O)[C@@H]1O` [Compound 38, ((2R,3S,4R,5S)-5-(4-aminopyrrolo[2,1-f][1,2,4]triazin-7-yl)-2-cyano-3,4-dihydroxytetrahydrofuran-2-yl)methyl ((R)-1-methoxypropan-2-yl) carbonate], the EC50 in series [3] came out at 40 µM; in series [4], 24.4 µM.
For `N#C[C@]1(COC(=O)O[C@@H]2C[C@@H]3C[C@@H]3C2)O[C@@H](c2ccc3c(N)ncnn23)[C@H](O)[C@@H]1O` [Compound 39, ((2R,3S,4R,5S)-5-(4-aminopyrrolo[2,1-f][1,2,4]triazin-7-yl)-2-cyano-3,4-dihydroxytetrahydrofuran-2-yl)methyl ((1R,3r,5S)-bicyclo[3.1.0]hexan-3-yl) carbonate] the same measures were 22 µM and 11.7 µM.
The like results for `C[C@H]1CC[C@H](OC(=O)OC[C@@]2(C#N)O[C@@H](c3ccc4c(N)ncnn34)[C@H](O)[C@@H]2O)CC1` [Compound 40, ((2R,3S,4R,5S)-5-(4-aminopyrrolo[2,1-f][1,2,4]triazin-7-yl)-2-cyano-3,4-dihydroxytetrahydrofuran-2-yl)methyl ((1r,4R)-4-methylcyclohexyl) carbonate] were, in that order, 29.3 µM and 15.4 µM.
